Measurements published in US6492416B1, “4,5-diaryl-3(2H)-furanone derivatives as cyclooxygenase-2 inhibitors” (Pacific Corporation, priority 1999, dated 2002).

melting point [°C] | SMILES
167 to 168 | Cc1ccc(C2=C(c3ccc(S(C)(=O)=O)cc3)OC(C)(C)C2=O)cc1 [Example 1, 2,2-Dimethyl-4-(4methylphenyl)-5-{4-(methylsulfonyl)phenyl}-3(2H)-furanone]
162 to 164 | CC1(C)OC(c2ccc(S(C)(=O)=O)cc2)=C(c2ccc(F)c(Cl)c2)C1=O [Example 2, 4-(3-Chloro-4-fluorophenyl)-2,2-dimethyl-5-{4-(methylsulfonyl)phenyl}-3(2H)-furanone]
118 to 120 | CC1(C)OC(c2ccc(S(C)(=O)=O)cc2)=C(c2ccc(OC(F)(F)F)cc2)C1=O [Example 7, 2,2-Dimethyl-5-{4-(methylsulfonyl)phenyl}-4-{4-(trifluoromethoxy)phenyl}-3(2H)-furanone]
178 to 179 | CC1(C)OC(c2ccc(S(C)(=O)=O)cc2)=C(c2ccc3c(c2)OCO3)C1=O [Example 8, 2,2-Dimethyl-4-(3,4-methylenedioxyphenyl)-5-{4-(methylsulfonyl)phenyl}-3(2H)-furanone]
130 to 131 | COc1c(C)cc(C2=C(c3ccc(S(C)(=O)=O)cc3)OC(C)(C)C2=O)cc1C [Example 12, 2,2-Dimethyl-4-(3,5-dimethyl-4-methoxyphenyl)-5-{4-(methylsulfonyl)phenyl}-3(2H)-furanone]
194 to 195 | CC1(C)OC(c2ccc(S(C)(=O)=O)cc2)=C(c2cccc3ccccc23)C1=O [Example 13, 2,2-Dimethyl-5-{4-(methylsulfonyl)phenyl}-4-(1-naphthyl)-3(2H)-furanone]
204 to 206 | CC1(C)OC(c2ccc(S(C)(=O)=O)cc2)=C(c2cc3ccccc3s2)C1=O [Example 15, 4-(2-Benzo[b]thienyl)-2,2-dimethyl-5-{4-(methylsulfonyl)phenyl}-3(2H)-furanone]
140 to 141 | CC1(C)OC(c2ccc(S(C)(=O)=O)cc2)=C(c2cc3ccccc3o2)C1=O [Example 16, 4-(2-Benzo[b]furanyl)-2,2-dimethyl-5-{4-(methylsulfonyl)phenyl}-3(2H)-furanone]
164 to 166 | CC1(C)OC(c2ccc(S(C)(=O)=O)cc2)=C(c2cccnc2)C1=O [Example 19, 2,2-Dimethyl-5-{4-(methylsulfonyl)phenyl}-4-(3-pyridyl)-3(2H)-furanone]
178 to 179 | CC1(C)OC(c2ccc(S(N)(=O)=O)cc2)=C(c2ccc3c(c2)OCO3)C1=O [Example 27, 5-{4-(Aminosulfonyl)phenyl{-2,2-dimethyl-4-}3,4-(methylenedioxy)phenyl}-3(2H)-furanone]
120 to 121 | CC1(C)OC(c2ccc(S(N)(=O)=O)cc2)=C(c2cc3ccccc3s2)C1=O [Example 28]
160 to 161 | CC1(C)OC(c2ccc(S(N)(=O)=O)cc2)=C(c2cccc(-c3ccccc3)c2)C1=O [Example 29, 5-{4-(Aminosulfonyl)phenyl}-4-(3-biphenyl)-2,2-dimethyl-3(2H)-furanone]
143 to 145 | CC1(C)OC(c2ccc(S(N)(=O)=O)cc2)=C(c2cc3ccccc3o2)C1=O [Example 30]
113 to 114 | CCC1(C)OC(c2ccc(S(N)(=O)=O)cc2)=C(c2ccc(OC)c(F)c2)C1=O (stereo not drawn) [Example 46, 5-{4-(Aminosulfonyl)phenyl}-2-ethyl-4-(3-fluoro-4-methoxyphenyl)-2-methyl-3(2H)-furanone]
139 to 140 | CCC1(CC)OC(c2ccc(S(C)(=O)=O)cc2)=C(c2ccccc2)C1=O [Example 47, 2,2-Diethyl-5-{4-(methylsulfonyl)phenyl}-4-phenyl-3(2H)-furanone]
126 to 130 | CC(=O)c1ccc(C2=C(c3ccc(S(C)(=O)=O)cc3)OC3(CCCC3)C2=O)cc1 [Example 55, 3-(4-Acetylphenyl)-2-{4-(methylsulfonyl)phenyl}-1-oxa-spiro[4,4]non-2-en-4-one]
137 to 141 | CSc1ccc(C2=C(c3ccc(S(C)(=O)=O)cc3)OC(C)(C)C2=O)cc1 [Example 72, 2,2-dimethyl-5-{4-(methylsulfonyl)phenyl}-4-{4-(methylthio)-phenyl}-3(2H)-furanone]
103 to 105 | CCSc1ccc(C2=C(c3ccc(S(C)(=O)=O)cc3)OC(C)(C)C2=O)cc1 [Example 88, 2,2-dimethyl-4-{4-(ethylthio)phenyl}-5-{4-(methylsulfonyl)-phenyl}-3(2H)-furanone]
245 to 257 | CC1(C)OC(c2ccc(S(C)(=O)=O)cc2)=C(c2ccc(S(C)(=O)=O)cc2)C1=O [Example 109, 2,2-Dimethyl-4,5-di{4-(methylsulfonyl)phenyl}-3(2H)-furanone]
198 to 203 | CCS(=O)(=O)c1ccc(C2=C(c3ccc(S(C)(=O)=O)cc3)OC(C)(C)C2=O)cc1 [Example 110, 2,2-Dimethyl-4-{4-(ethylsulfonyl)phenyl}-5-{4-(methylsulfonyl)phenyl}-3(2H)-furanone]
106 | CSc1ccc(C2=C(c3cccc(F)c3)C(=O)C(C)(C)O2)cc1 [Example 166, 2,2-Dimethyl-4-(3-fluorophenyl)-5-{4-(methylthio)phenyl}-3(2H)-furanone]
122 to 123 | CSc1ccc(C2=C(c3cc(F)cc(F)c3)C(=O)C(C)(C)O2)cc1 [Example 173, 4-(3,5-difluorophenyl)-2,2-dimethyl-5-{4-(methylthio)-phenyl}-3(2H)-furanone]
188 to 189 | CCCC(=O)NS(=O)(=O)c1ccc(C2=C(c3cccc(F)c3)C(=O)C(C)(C)O2)cc1 [Example 183, 5-[4-{(n-Butyrylamino)sulfonyl}phenyl]-2,2-dimethyl-4-(3-fluorophenyl)-3(2H)-furanone]
176 to 177 | CNS(=O)(=O)c1ccc(C2=C(c3cccc(F)c3)C(=O)C(C)(C)O2)cc1 [Example 184, 2,2-Dimethyl-5-{4-(N-methylaminosulfonyl)phenyl}-4-(3-fluorophenyl)-3(2H)-furanone]
154 to 155 | Cc1cccc(C2=C(c3ccc(S(C)(=O)=O)cc3)OC3(CCCCC3)C2=O)c1 [Example 260, 3-(3-Methylphenyl)-2-{4-(methylsulfonyl)phenyl}-1-oxa-spiro[4,5]dec-2-en-4-one]
173 to 174 | CC1(C)OC(c2ccc(S(C)(=O)=O)c(F)c2)=C(c2ccc([N+](=O)[O-])cc2)C1=O [Example 287, 2,2-dimethyl-4-(4-nitrophenyl)-5-{3-fluoro-4-(methylsulfonyl)-phenyl}-3(2H)-furanone]
149 to 150 | C[S+]([O-])c1ccc(C2=C(c3ccccc3)C(=O)C(C)(C)O2)c(F)c1 (stereo not drawn) [Example 327, 2,2-Dimethyl-5-{2-fluoro-4-(methylsulfinyl)phenyl}-4-phenyl-3(2H)-furanone]
120 to 121 | C[S+]([O-])c1ccc(C2=C(c3ccccc3)C(=O)C(C)(C)O2)cc1Cl (stereo not drawn) [Example 363, 5-{3-Chloro-4-(methylsulfinyl)phenyl}-2,2-dimethyl-4-phenyl-3(2H)-furanone]
81 to 82 | Cc1cc(C2=C(c3cccc(F)c3)C(=O)C(C)(C)O2)ccc1S(N)(=O)=O [Example 380, 5-{4-(Aminosulfonyl)-3-methylphenyl}-2,2-dimethyl-4-(3-fluorophenyl)-3(2H)-furanone]
135 to 136 | C[S+]([O-])c1ccc(C2=C(c3ccccc3)C(=O)C(C)(C)O2)c(Cl)c1 (stereo not drawn) [Example 391, 5-{2-Chloro-4-(methylsulfinyl)phenyl}-2,2-dimethyl-4-phenyl-3(2H)-furanone]
